Each structure is given as a SMILES string.

What all share (conditions): Table 35
Experiment [1] deals with RIP1 (Homo sapiens (Human), UniProt Q13546). The experiment can be described thus: KINOMEscan binding assay, RIP1.
For experiment [2], the target named is MLKL (full length) (Homo sapiens (Human), UniProt Q8NB16). The experiment can be described thus: KINOMEscan binding assay, MLKL (full length). On the procedure: (§1) Kinase assays. For most assays, kinase-tagged T7 phage strains were grown in parallel in 24-well blocks in an E. coli host derived from the BL21 strain. E. coli were grown to log-phase and infected with T7 phage from a frozen stock (multiplicity of infection=0.4) and incubated with shaking at 32° C. until lysis (90-150 minutes).
Sequence of MLKL (full length) (Q8NB16 whole entry): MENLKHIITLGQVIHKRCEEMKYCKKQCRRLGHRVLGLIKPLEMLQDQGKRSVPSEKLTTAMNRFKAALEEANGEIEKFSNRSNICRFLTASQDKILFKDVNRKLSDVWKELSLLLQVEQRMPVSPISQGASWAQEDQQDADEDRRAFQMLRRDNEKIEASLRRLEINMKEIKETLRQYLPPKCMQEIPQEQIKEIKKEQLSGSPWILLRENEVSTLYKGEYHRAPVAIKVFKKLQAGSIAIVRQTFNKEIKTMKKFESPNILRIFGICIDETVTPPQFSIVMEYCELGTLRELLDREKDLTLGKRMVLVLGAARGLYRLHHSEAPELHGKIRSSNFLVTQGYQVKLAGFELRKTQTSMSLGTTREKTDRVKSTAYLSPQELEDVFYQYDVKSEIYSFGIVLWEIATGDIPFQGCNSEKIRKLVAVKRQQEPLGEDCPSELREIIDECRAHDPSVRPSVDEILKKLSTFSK
(§2) The Hill Slope was set to −1.

The target of experiment [3] is RIP3 (Homo sapiens (Human), UniProt Q9Y572). The experiment can be described thus: KINOMEscan binding assay, RIP3. On the procedure: as §1, §2
Sequence of RIP3 (Q9Y572 whole entry): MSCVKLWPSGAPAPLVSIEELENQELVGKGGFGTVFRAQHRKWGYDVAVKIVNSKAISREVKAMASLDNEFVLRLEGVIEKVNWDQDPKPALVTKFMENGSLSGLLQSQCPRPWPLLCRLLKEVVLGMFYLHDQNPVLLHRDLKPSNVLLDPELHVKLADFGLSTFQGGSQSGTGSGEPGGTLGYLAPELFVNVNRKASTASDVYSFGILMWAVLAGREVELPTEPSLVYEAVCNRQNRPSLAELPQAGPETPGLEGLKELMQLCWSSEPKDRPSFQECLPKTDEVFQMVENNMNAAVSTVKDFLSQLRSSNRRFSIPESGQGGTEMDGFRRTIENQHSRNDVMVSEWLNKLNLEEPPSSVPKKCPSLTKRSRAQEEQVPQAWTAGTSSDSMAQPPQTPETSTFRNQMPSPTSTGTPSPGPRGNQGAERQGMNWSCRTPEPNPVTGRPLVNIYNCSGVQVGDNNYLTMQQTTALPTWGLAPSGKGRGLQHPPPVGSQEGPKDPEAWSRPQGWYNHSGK

Sequence of RIP1 (Q13546 whole entry): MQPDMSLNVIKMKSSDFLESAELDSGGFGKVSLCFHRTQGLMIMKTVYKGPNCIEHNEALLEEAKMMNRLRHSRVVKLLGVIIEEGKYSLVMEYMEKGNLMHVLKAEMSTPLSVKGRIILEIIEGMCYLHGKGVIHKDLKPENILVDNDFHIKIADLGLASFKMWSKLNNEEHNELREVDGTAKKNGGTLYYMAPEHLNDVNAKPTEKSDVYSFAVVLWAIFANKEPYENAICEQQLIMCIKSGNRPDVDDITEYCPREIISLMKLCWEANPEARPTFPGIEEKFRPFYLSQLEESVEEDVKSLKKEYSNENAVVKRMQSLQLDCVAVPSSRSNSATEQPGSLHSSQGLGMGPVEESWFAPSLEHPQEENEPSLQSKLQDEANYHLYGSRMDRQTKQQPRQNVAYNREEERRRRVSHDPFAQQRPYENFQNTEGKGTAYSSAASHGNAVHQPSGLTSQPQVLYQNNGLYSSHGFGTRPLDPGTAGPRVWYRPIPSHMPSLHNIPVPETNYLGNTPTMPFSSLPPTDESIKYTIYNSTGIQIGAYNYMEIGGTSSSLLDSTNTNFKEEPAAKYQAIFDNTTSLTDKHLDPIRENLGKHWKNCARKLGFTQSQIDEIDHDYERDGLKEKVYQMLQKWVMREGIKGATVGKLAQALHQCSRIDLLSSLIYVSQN

For `Cc1cnc(Nc2[nH]nc(-c3ccc(NS(=O)(=O)C(F)F)c(OC4(c5ccc(F)cc5)CC4)c3)c2C(N)=O)cn1` [Compound 290, 3-(4-((difluoromethyl)sulfonamido)-3-(1-(4-fluorophenyl)cyclopropoxy)phenyl)-5-((5-methylpyrazin-2-yl)amino)-1H-pyrazole-4-carboxamide], the Kd in experiment [1] was above 30 µM; in experiment [2], below 0.01 µM; in experiment [3] it was above 30 µM.
As to `C[C@H](Oc1cc(-c2n[nH]c(Nc3cc(C4(C)COC4)on3)c2C(N)=O)ccc1NS(=O)(=O)C(F)F)c1ccc(F)cc1` [Compound 292, (S)-3-(4-((difluoromethyl)sulfonamido)-3-(1-(4-fluorophenyl)ethoxy)phenyl)-5-((5-(3-methyloxetan-3-yl)isoxazol-3-yl)amino)-1H-pyrazole-4-carboxamide], the figures for the Kd in experiment [1], in experiment [2] and in experiment [3] were above 30 µM, below 0.01 µM and above 30 µM, respectively.
As for `COc1cc(Nc2[nH]nc(-c3ccc(NS(=O)(=O)C(F)F)c(O[C@@H](C)c4ccc(F)cc4)c3)c2C(N)=O)nn1C` [Compound 294, (S)-3-(4-((difluoromethyl)sulfonamido)-3-(1-(4-fluorophenyl)ethoxy)phenyl)-5-((5-methoxy-1-methyl-1H-pyrazol-3-yl)amino)-1H-pyrazole-4-carboxamide], the Kd in experiment [1] is above 30 µM; in experiment [2] it was below 0.01 µM; in experiment [3] it was above 30 µM.
For the compound `C[C@H](Oc1cc(-c2n[nH]c(Nc3cc(C(C)(C)C)no3)c2C(N)=O)ccc1NS(=O)(=O)C(F)F)c1ccc(F)cc1` [Compound 295, (S)-5-((3-(tert-butyl)isoxazol-5-yl)amino)-3-(4-((difluoromethyl)sulfonamido)-3-(1-(4-fluorophenyl)ethoxy)phenyl)-1H-pyrazole-4-carboxamide], the results for the Kd in experiment [1], in experiment [2] and in experiment [3] were above 30 µM, below 0.01 µM and above 30 µM, respectively.
With `C[C@H](Oc1cc(-c2n[nH]c(Nc3cnc(C4CCOCC4)cn3)c2C(N)=O)ccc1NS(=O)(=O)C(F)F)c1ccc(F)cc1` [Compound 296, (S)-3-(4-((difluoromethyl)sulfonamido)-3-(1-(4-fluorophenyl)ethoxy)phenyl)-5-((5-(tetrahydro-2H-pyran-4-yl)pyrazin-2-yl)amino)-1H-pyrazole-4-carboxamide], the Kd in experiment [1] was above 30 µM; in experiment [2] it was below 0.01 µM; in experiment [3] it was above 30 µM.
For the compound `C[C@H](Oc1cc(-c2n[nH]c(Nc3cc(C(C)(C)F)on3)c2C(N)=O)ccc1NS(=O)(=O)C(F)F)c1ccc(F)cc1` [Compound 297, (S)-3-(4-((difluoromethyl)sulfonamido)-3-(1-(4-fluorophenyl)ethoxy)phenyl)-5-((5-(2-fluoropropan-2-yl)isoxazol-3-yl)amino)-1H-pyrazole-4-carboxamide], the values for the Kd in experiment [1], in experiment [2] and in experiment [3] were above 30 µM, below 0.01 µM and above 30 µM, respectively.
Take `COC[C@@H](Oc1cc(-c2n[nH]c(Nc3cc(C)on3)c2C(N)=O)ccc1NS(=O)(=O)C(F)F)c1ccc(F)cc1` [Compound 300, (S)-3-(4-((difluoromethyl)sulfonamido)-3-(1-(4-fluorophenyl)-2-methoxyethoxy)phenyl)-5-((5-methylisoxazol-3-yl)amino)-1H-pyrazole-4-carboxamide]: the Kd in experiment [1] was above 30 µM; in experiment [2] it was below 0.01 µM; in experiment [3], above 30 µM.
Take `Cc1cc(Nc2[nH]nc(-c3ccc(NS(=O)(=O)C(F)F)c(O[C@@H](C)c4ccc(F)cc4)c3)c2C(N)=O)on1` [Compound 302, (S)-3-(4-((difluoromethyl)sulfonamido)-3-(1-(4-fluorophenyl)ethoxy)phenyl)-5-((3-methylisoxazol-5-yl)amino)-1H-pyrazole-4-carboxamide]: the Kd was above 30 µM in experiment [1], below 0.01 µM in experiment [2] and above 30 µM in experiment [3].
Regarding `C[C@H](Oc1cc(-c2n[nH]c(Nc3cc(C4CCOCC4)on3)c2C(N)=O)ccc1NS(=O)(=O)C(F)F)c1ccc(F)cc1` [Compound 303, (S)-3-(4-((difluoromethyl)sulfonamido)-3-(1-(4-fluorophenyl)ethoxy)phenyl)-5-((5-(tetrahydro-2H-pyran-4-yl)isoxazol-3-yl)amino)-1H-pyrazole-4-carboxamide], the Kd is above 30 µM in experiment [1], below 0.01 µM in experiment [2] and above 30 µM in experiment [3].
In the case of `C[C@H](Oc1cc(-c2n[nH]c(Nc3cc(C4CCOC4)on3)c2C(N)=O)ccc1NS(=O)(=O)C(F)F)c1ccc(F)cc1` (stereo partly drawn) [Compound 305, 3-(4-((difluoromethyl)sulfonamido)-3-((S)-1-(4-fluorophenyl)ethoxy)phenyl)-5-((5-(tetrahydrofuran-3-yl)isoxazol-3-yl)amino)-1H-pyrazole-4-carboxamide], the Kd in experiment [1] is above 30 µM; in experiment [2] it was below 0.01 µM; in experiment [3] it was above 30 µM.
On to `C[C@H](Oc1cc(-c2n[nH]c(Nc3cnn(C4CCOCC4)c3)c2C(N)=O)ccc1NS(=O)(=O)C(F)F)c1ccc(F)cc1` [Compound 306, (S)-3-(4-((difluoromethyl)sulfonamido)-3-(1-(4-fluorophenyl)ethoxy)phenyl)-5-((1-(tetrahydro-2H-pyran-4-yl)-1H-pyrazol-4-yl)amino)-1H-pyrazole-4-carboxamide], for which the Kd in experiment [1] is above 30 µM; in experiment [2], below 0.01 µM; in experiment [3], above 30 µM.
On to `NC(=O)c1c(-c2ccc(NS(=O)(=O)C(F)F)c(OC3(c4ccc(F)cc4)CC3)c2)n[nH]c1Nc1cnccn1` [Compound 307, 3-(4-((difluoromethyl)sulfonamido)-3-(1-(4-fluorophenyl)cyclopropoxy)phenyl)-5-(pyrazin-2-ylamino)-1H-pyrazole-4-carboxamide], for which the values for the Kd in experiment [1], in experiment [2] and in experiment [3] were above 30 µM, below 0.01 µM and above 30 µM, respectively.
As to `C[C@H](Oc1cc(-c2n[nH]c(Nc3cc4n(n3)CCOC4)c2C(N)=O)ccc1NS(=O)(=O)C(F)F)c1ccc(F)cc1` [Compound 308, (S)-3-(4-((difluoromethyl)sulfonamido)-3-(1-(4-fluorophenyl)ethoxy)phenyl)-5-((6,7-dihydro-4H-pyrazolo[5,1-c][1,4]oxazin-2-yl)amino)-1H-pyrazole-4-carboxamide], the results for the Kd in experiment [1], in experiment [2] and in experiment [3] were above 30 µM, below 0.01 µM and above 30 µM, respectively.
Take `Cc1nccc(Nc2[nH]nc(-c3ccc(NS(=O)(=O)C(F)F)c(O[C@@H](C)c4ccc(F)cc4)c3)c2C(N)=O)n1` [Compound 309, (S)-3-(4-((difluoromethyl)sulfonamido)-3-(1-(4-fluorophenyl)ethoxy)phenyl)-5-((2-methylpyrimidin-4-yl)amino)-1H-pyrazole-4-carboxamide]: the Kd is above 30 µM in experiment [1], below 0.01 µM in experiment [2] and above 30 µM in experiment [3].
`C[C@H](Oc1cc(-c2n[nH]c(Nc3cnc(C(C)(C)C)cn3)c2C(N)=O)ccc1NS(=O)(=O)C(F)F)c1ccc(F)cc1` [Compound 312, (S)-5-((5-(tert-butyl)pyrazin-2-yl)amino)-3-(4-((difluoromethyl)sulfonamido)-3-(1-(4-fluorophenyl)ethoxy)phenyl)-1H-pyrazole-4-carboxamide]: the Kd is above 30 µM in experiment [1], below 0.01 µM in experiment [2] and above 30 µM in experiment [3].
As for `NC(=O)c1c(-c2ccc(NS(=O)(=O)C(F)F)c(OCc3ncco3)c2)n[nH]c1Nc1cnccn1` [Compound 313, 3-(4-((difluoromethyl)sulfonamido)-3-(oxazol-2-ylmethoxy)phenyl)-5-(pyrazin-2-ylamino)-1H-pyrazole-4-carboxamide], the Kd in experiment [1] is above 30 µM; in experiment [2] it was below 0.01 µM; in experiment [3] it was above 30 µM.
Take `C[C@H](Oc1cc(-c2n[nH]c(Nc3cc(C(F)F)on3)c2C(N)=O)ccc1NS(=O)(=O)C(F)F)c1ccc(F)cc1` [Compound 314, (S)-5-((5-(difluoromethyl)isoxazol-3-yl)amino)-3-(4-((difluoromethyl)sulfonamido)-3-(1-(4-fluorophenyl)ethoxy)phenyl)-1H-pyrazole-4-carboxamide]: the Kd was above 30 µM in experiment [1], below 0.01 µM in experiment [2] and above 30 µM in experiment [3].
Take `CCS(=O)(=O)Nc1ccc(-c2n[nH]c(Nc3ccc(C(=O)O)cn3)c2C(N)=O)cc1O[C@@H](C)c1ccc(F)cc1` [Compound 315, (S)-6-((4-carbamoyl-3-(4-(ethylsulfonamido)-3-(1-(4-fluorophenyl)ethoxy)phenyl)-1H-pyrazol-5-yl)amino)nicotinic acid]: the figures for the Kd in experiment [1], in experiment [2] and in experiment [3] were above 30 µM, below 0.01 µM and above 30 µM, respectively.
As for `C[C@H](Oc1cc(-c2n[nH]c(Nc3cnc(C4CC4)cn3)c2C(N)=O)ccc1NS(=O)(=O)C(F)F)c1ccc(F)cc1` [Compound 316, (S)-5-((5-cyclopropylpyrazin-2-yl)amino)-3-(4-((difluoromethyl)sulfonamido)-3-(1-(4-fluorophenyl)ethoxy)phenyl)-1H-pyrazole-4-carboxamide], the results for the Kd in experiment [1], in experiment [2] and in experiment [3] were above 30 µM, below 0.01 µM and above 30 µM, respectively.
As for `CCS(=O)(=O)Nc1ccc(-c2n[nH]c(Nc3cc(C)on3)c2C(N)=O)cc1O[C@@H](C)c1ccc(F)cc1` [Compound 317, (S)-3-(4-(ethylsulfonamido)-3-(1-(4-fluorophenyl)ethoxy)phenyl)-5-((5-methylisoxazol-3-yl)amino)-1H-pyrazole-4-carboxamide], the Kd in experiment [1] was above 30 µM; in experiment [2] it was below 0.01 µM; in experiment [3], above 30 µM.
On to `C[C@H](Oc1cc(-c2n[nH]c(Nc3cc4n(n3)CCCN(C)C4)c2C(N)=O)ccc1NS(=O)(=O)C(F)F)c1ccc(F)cc1` [Compound 318, (S)-3-(4-((difluoromethyl)sulfonamido)-3-(1-(4-fluorophenyl)ethoxy)phenyl)-5-((5-methyl-5,6,7,8-tetrahydro-4H-pyrazolo[1,5-a][1,4]diazepin-2-yl)amino)-1H-pyrazole-4-carboxamide], for which the Kd was above 30 µM in experiment [1], below 0.01 µM in experiment [2] and above 30 µM in experiment [3].
